Measurements taken from US20190350898A1, “METHODS AND COMPOSITIONS FOR TREATMENT OF ALZHEIMER'S DISEASE” (Neurotrope Bioscience, Inc., priority 2018, published 2019).
Several values for one entry are separate records, joined by “and”; a condition that tells them apart may be missing. Identical values can stand only once.

Columns and labels:
Type in all cases: in vivo, human
[1] = tested on: patients with advanced Alzheimer's disease; test: Severe Impairment Battery (SIB) change from baseline, double-blind randomized placebo-controlled trial; conditions: for SIB Total, Difference vs. Placebo / SIB Total change from baseline, LS Mean (SE) / SIB Total change from baseline, LS Mean: Bryostatin 20 μg; for SIB Delta at Ave of Week 13 and 15, Mean / SIB Delta at Week 5, Mean / SIB Delta at Week 9, Mean / SIB Delta at Week 13, Mean: Low dose (20), unadjusted; for Combined treatment effect, mean improvement in SIB over placebo: bryostatin 20 μg, post-hoc MMRM; for SIB Total LS Mean difference between 20 μg group and placebo: week 13
Procedure: In a double-blind, randomized, placebo-controlled trial, bryostatin was administered by intravenous infusion (˜45 minutes) to patients with advanced Alzheimer's disease for 12 weeks at doses of 20 or 40 μg. Randomization was stratified at baseline by severe (MMSE-2, 4-9) and moderate (MMSE-2, 10-15) dementia, wherein MMSE-2 refers to Mini-Mental State Examination, version 2. The MMSE or Folstein test is a 30-point questionnaire that is used extensively in clinical and research settings to measure cognitive impairment. Low scores indicate greater impairment. Version 2 of the MMSE was published in 2010, expanding the original questionnaire's usefulness in populations with milder forms of cognitive impairment. […] Importantly, this cognitive improvement persisted and increased 30 days after all bryostatin dosing had been completed.
(§1) Adults aged 55-85 with cognitive deficits present for at least 2 years, MMSE-2 of 4-15, inclusive, and a diagnosis of Alzheimer's dementia were randomly assigned to receive blinded intravenous infusions of bryostatin 24 μg or matching placebo at weeks 0 and 1. The 24 μg and 48 μg doses during the first two weeks of the 20 and 40 μg protocols respectively were considered to be “loading” doses thought to be beneficial from prior experience with Compassionate Use trial patients. Nelson et al., Alzheimers Dis. 2017 58: 521-535. In one arm, the two 24 μg doses were followed by 20 μg doses at weeks 5, 7, 9 and 11 with the Severe Impairment Battery (SIB) measured at baseline and weeks 5, 9, 13, and 15. In a second arm, the two 48 μg doses at weeks 0 and 1 were followed by 40 μg doses at weeks 5, 7, 9, and 11 with the SIB measured at baseline and weeks 5, 9, 13, and 15. The subjects were stratified by MMSE-2 in two strata: Stratum 1 (4-9) and Stratum 2 (10-15). The first primary endpoint was safety and tolerability, assessed by treatment emergent adverse events (TEAEs) with a sample size of 150 subjects randomized 1:1:1. Although efficacy was the secondary measure, the primary efficacy endpoint was SIB improvement at week 13 evaluated using a mixed model for repeated measures. A secondary efficacy endpoint was ADCS-ADL Sev. The primary safety population included all subjects who received at least 1 dose of study drug, and efficacy was evaluated in a modified intent to treat (mITT) population that received at least 1 dose of study drug and had at least one treatment evaluation. Efficacy was evaluated both as a primary end-point in the modified intent-to-treat (mITT) population and also as a primary end point in a Completers population that included all patients that completed the entire protocols as described above.
The SIB efficacy measurement at 30 days (week 15) post dosing—after all dosing had been completed (last dose administered at week 11)—was a pre-specified exploratory endpoint. Week 15 results were only included for subjects who were not re-randomized. The mixed model assumes missing at random, but order of enrollment in the trial was not random. Since order of enrollment was not random, the assumption of missing at random is not met. For this reason, only including week 15 for those who were not re-randomized is an appropriate way to estimate week 15 results, but not an appropriate way to estimate results at the earlier visits. For this reason, estimates up through week 13 are from a mixed model that only included data through week 13 and the week 15 estimates are from a separate model. Results were generated using a mixed model with repeated measures predicting change from baseline in SIB Total Score as the response variable and using baseline score, baseline MMSE strata, treatment, visit (categorical), and visit (treatment) as predictors. […]

[2] = tested on: patients with advanced Alzheimer's disease; test: ADCS-ADL-SIV (ADCS-ADL Sev) secondary efficacy endpoint, same trial; conditions: for ADCS-ADL LS Mean difference between 20 μg group and placebo: week 13
Procedure: as §1
There was no evidence of treatment by efficacy of acetyl-cholinesterase-inhibitor (AChEI) use interaction. For SIB Total, the two sided p-value for the interaction between treatment and AChEI use was 0.8244 and the two sided p-value for the interaction between treatment, AChEI use and time was 0.9223. Similar results were seen when investigating the effect of AChEI use on treatment effect for ADCS-ADL with p-values of 0.5137 and 0.6256 (two sided), respectively. At week 13, the LS Mean difference between 20 μg group and placebo in SIB Total for AChEI non-users was 2.00 and users was 2.09, and in ADCS-ADL for AChEI non-users was −0.67 and users was 1.99.

[3] = tested on: patients with advanced Alzheimer's disease; test: Safety and tolerability, treatment emergent adverse events (TEAEs), same trial; conditions: 40 μg group
Procedure: In a double-blind, randomized, placebo-controlled trial, bryostatin was administered by intravenous infusion (˜45 minutes) to patients with advanced Alzheimer's disease for 12 weeks at doses of 20 or 40 μg. Randomization was stratified at baseline by severe (MMSE-2, 4-9) and moderate (MMSE-2, 10-15) dementia, wherein MMSE-2 refers to Mini-Mental State Examination, version 2. The MMSE or Folstein test is a 30-point questionnaire that is used extensively in clinical and research settings to measure cognitive impairment. Low scores indicate greater impairment. […]
Adults aged 55-85 with cognitive deficits present for at least 2 years, MMSE-2 of 4-15, inclusive, and a diagnosis of Alzheimer's dementia were randomly assigned to receive blinded intravenous infusions of bryostatin 24 μg or matching placebo at weeks 0 and 1. […] In one arm, the two 24 μg doses were followed by 20 μg doses at weeks 5, 7, 9 and 11 with the Severe Impairment Battery (SIB) measured at baseline and weeks 5, 9, 13, and 15. In a second arm, the two 48 μg doses at weeks 0 and 1 were followed by 40 μg doses at weeks 5, 7, 9, and 11 with the SIB measured at baseline and weeks 5, 9, 13, and 15. […] The first primary endpoint was safety and tolerability, assessed by treatment emergent adverse events (TEAEs) with a sample size of 150 subjects randomized 1:1:1. […]

[4] = Week 15 (30 days post dosing), Completer, MMRM
[5] = Week 15 (30 days post dosing), FAS, MMRM
[6] = Week 15, Completer, With Memantine
[7] = Week 15, Completer, Without Memantine
[8] = Week 15, FAS (mITT), Without Memantine
[9] = Memantine Exposed Patients, FAS
[10] = Memantine Treatment-Naïve Patients, FAS

SMILES: CCC/C=C/C=C/C(=O)O[C@H]1/C(=C/C(=O)OC)C[C@H]2C[C@H]([C@@H](C)O)OC(=O)C[C@H](O)C[C@@H]3C[C@H](OC(C)=O)C(C)(C)[C@](O)(C[C@@H]4C/C(=C/C(=O)OC)C[C@H](/C=C/C(C)(C)[C@]1(O)O2)O4)O3 [Bryostatin, bryostatin-1]
- SIB Total, Difference vs. Placebo ([1]; Week 13, FAS (mITT), Without Memantine): 5.11
- SIB Total change from baseline, LS Mean (SE) ([1]; Week 13, FAS, MMRM): 1.16 (1.150)
- SIB Total, Difference vs. Placebo ([1]; Week 13, FAS, MMRM): 1.94
- SIB Total change from baseline, LS Mean (SE) [1, 4]: 1.96 (1.255)
- SIB Total, Difference vs. Placebo [1, 4]: 4.09
- SIB Total, Difference vs. Placebo ([1]; Week 15 (30 days post dosing), Completer, MMRM, listed as bryostatin): 4.0 and 4.09
- SIB Total change from baseline, LS Mean (SE) [1, 5]: 1.77 (1.342) points
- SIB Total, Difference vs. Placebo [1, 5]: 3.59
- SIB Total change from baseline, LS Mean (SE) ([1]; Week 15 (30 days post dosing), FAS, MMRM, listed as bryostatin): 1.77 points
- SIB Total change from baseline, LS Mean [1, 6]: −0.71
- SIB Total, Difference vs. Placebo [1, 6]: 1.45
- SIB Total change from baseline, LS Mean [1, 7]: 6.24
- SIB Total, Difference vs. Placebo [1, 7]: 6.36
- SIB Total change from baseline, LS Mean [1, 8]: 5.88 points
- SIB Total, Difference vs. Placebo [1, 8]: 5.93
- SIB Total change from baseline, LS Mean ([1]; Week 15, FAS, With Memantine): −0.83
- SIB Total, Difference vs. Placebo ([1]; Week 15, FAS, With Memantine): 0.79
- 13-week LS Mean change in SIB (so in the source) ([1]; Completers, 20 μg group 'without memantine' as printed): 0.56
- SIB Delta at Ave of Week 13 and 15, Mean [1, 9]: −0.727
- SIB Delta at Week 5, Mean [1, 9]: 0.077
- SIB Delta at Week 9, Mean [1, 9]: −0.087
- SIB Delta at Week 13, Mean [1, 9]: −0.545
- SIB Delta at Ave of Week 13 and 15, Mean [1, 10]: 5.406
- SIB Delta at Week 5, Mean [1, 10]: 3.444
- SIB Delta at Week 9, Mean [1, 10]: 3.467
- SIB Delta at Week 13, Mean [1, 10]: 4.500
- Treatment, adjusted slope (ANCOVA, SIB at 13/15 weeks from baseline, 20 μg Bryostatin vs placebo) ([1]; Memantine Exposed, adjusted for Base SIB, MMSE-2): −0.620 (p = 0.815)
- Treatment, adjusted slope (ANCOVA, SIB at 13/15 weeks from baseline, 20 μg Bryostatin vs placebo) ([1]; Memantine Exposed, adjusted for Baseline SIB): −0.531 (p = 0.843)
- Treatment, adjusted slope (ANCOVA, SIB at 13/15 weeks from baseline, 20 μg Bryostatin vs placebo) ([1]; Memantine Naïve, adjusted for Base SIB, MMSE-2): 5.923 (p = 0.002)
- Treatment, adjusted slope (ANCOVA, SIB at 13/15 weeks from baseline, 20 μg Bryostatin vs placebo) ([1]; Memantine Naïve, adjusted for Baseline SIB): 5.426 (p = 0.010)
- Combined treatment effect, mean improvement in SIB over placebo ([1]; Weeks 5, 9, 13, and 15, 30-Day Follow-up population): 4.721
- Combined treatment effect, mean improvement in SIB over placebo ([1]; Weeks 5, 9, and 13, Completer population): 3.089
- Combined treatment effect, mean improvement in SIB over placebo ([1]; Weeks 5, 9, and 13, FAS population): 2.146
- SIB Total LS Mean difference between 20 μg group and placebo ([1]; AChEI non-users): 2.00
- SIB Total LS Mean difference between 20 μg group and placebo ([1]; AChEI users): 2.09
- ADCS-ADL efficacy ([2]; 20 μg dose): significant
- ADCS-ADL difference from placebo ([2]; 20 μg dose, completers group): 1.6
- ADCS-ADL difference from placebo ([2]; 20 μg dose, mITT group): 1.4
- ADCS-ADL, subgroups with and without memantine ([2]; memantine (Namenda) as background SOC therapy or not): not significantly different above placebo
- ADCS-ADL LS Mean difference between 20 μg group and placebo ([2]; AChEI non-users): −0.67
- ADCS-ADL LS Mean difference between 20 μg group and placebo ([2]; AChEI users): 1.99
- Safety results (adverse events) [3]: more adverse events
